± gives the standard deviation of the averaged measurements.
Tests used:
Assay in all cases: level (log10 ratio to DMSO vehicle control); higher = higher biomarker level / cell amount than vehicle control
Conditions in all cases: in DMSO
[1] = compound: OCCC(F)(F)C(F)(F)C(F)(F)C(F)(F)C(F)(F)C(F)(F)F [6:2 Fluorotelomer alcohol]
Method: (§1)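 BioMAP Diversity Plus panel of 12 human primary cell co-culture systems (3C, 4H, LPS, SAg, BT, BF4T, BE3C, CASM3C, HDF3CGF, KF3CT, MyoF, Mphg). Compounds were added 1 h before stimulation and left for 24 h (MyoF 48 h; BT 72 h for soluble read-outs or 6 d for IgG). Biomarkers were read by ELISA, cytotoxicity by SRB, PBMC viability and proliferation by Alamar Blue. Each well value was divided by the mean of 8 DMSO control wells on the same plate and log10 transformed; duplicate blinded samples were tested at 4 concentrations.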

[2] = compound: FC(F)C(F)(F)COCC1CO1 [((2,2,3,3-Tetrafluoropropoxy)methyl)oxirane]
Method: as §1

[3] = compound: O=C(O)C(F)(F)OC(F)(F)C(F)(F)OC(F)(F)F [Perfluoro-3,6-dioxaheptanoic acid]
Method: as §1

[4] = compound: C=CC(F)(F)C(F)(F)C(F)(F)C(F)(F)C(F)(F)C(F)(F)C(F)(F)C(F)(F)C=C [1,8-Divinylperfluorooctane]
Method: as §1

[5] = compound: O=C(O)C(F)(F)C(F)(F)C(F)(F)C(F)(F)C(F)(F)C(F)(F)C(F)(F)C(F)F [9-H-Perfluorononanoic acid]
Method: as §1

[6] = compound: O=C(O)C(F)(F)OC(F)(F)C(F)(F)OC(F)(F)C(=O)O [Perfluoro-3,6-dioxaoctane-1,8-dioic acid]
Method: as §1

Test System | level (log10) ([1]; 6700 nM) | level (log10) ([1]; 20000 nM) | level (log10) ([2]; 6700 nM) | level (log10) ([2]; 20000 nM) | level (log10) ([2]; 60000 nM) | level (log10) ([3]; 6700 nM) | level (log10) ([3]; 20000 nM) | level (log10) ([3]; 60000 nM) | level (log10) ([4]; 6700 nM) | level (log10) ([4]; 20000 nM) | level (log10) ([5]; 6700 nM) | level (log10) ([5]; 20000 nM) | level (log10) ([5]; 60000 nM) | level (log10) ([6]; 6700 nM) | level (log10) ([6]; 20000 nM) | level (log10) ([6]; 60000 nM)
LPS:CD40 | -0.0015 ± 0.03 | -0.0315 ± 0.015 | 0.009 | -0.006 ± 0.0057 | -0.012 ± 0.017 | -0.0055 ± 0.012 | -0.0295 ± 0.039 | -0.024 ± 0.038 | 0.0305 ± 0.018 | 0.0225 ± 0.0064 | -0.027 ± 0.023 | -0.033 ± 0.016 | -0.0655 ± 0.021 | 0.025 ± 0.0099 | 0.0195 ± 0.005 | -0.0175 ± 0.053
BT:PBMC Cytotoxicity | -0.0185 ± 0.026 | -0.035 ± 0.0071 | 0.0145 ± 0.0021 | -0.011 ± 0.0085 | -0.0135 ± 0.005 | -0.011 ± 0.0099 | 0 ± 0.017 | 0.0015 ± 0.071 | 0.0285 ± 0.0035 | 0.019 ± 0.0042 | -0.009 ± 0.055 | 0.0435 ± 0.025 | 0.103 | -0.018 ± 0.057 | -0.0495 ± 0.0064 | -0.0125 ± 0.012
BT:sTNF-alpha | 0.071 ± 0.028 | -0.0445 ± 0.015 | 0.0865 ± 0.025 | 0.0615 ± 0.023 | -0.0195 ± 0.0021 | 0.0935 ± 0.056 | 0.0375 ± 0.17 | 0.0755 ± 0.036 | 0.016 ± 0.13 | 0.102 ± 0.081 | 0.032 ± 0.069 | 0.076 ± 0.014 | 0.032 ± 0.04 | -0.0245 ± 0.043 | -0.139 ± 0.035 | -0.019 ± 0.2
4H:SRB | -0.011 ± 0.024 | -0.006 ± 0.024 | -0.015 ± 0.0085 | -0.003 ± 0.0042 | -0.012 ± 0.027 | 0.009 ± 0.0042 | 0.0085 ± 0.0035 | 0 ± 0.0042 | 0.002 ± 0.0057 | 0.0125 ± 0.00071 | 0.008 ± 0.033 | -0.0115 ± 0.025 | -0.039 ± 0.0099 | -0.0115 ± 0.0078 | -0.0115 ± 0.022 | -0.003 ± 0.027
3C:CXCL9/MIG | 0.0045 ± 0.005 | -0.0145 ± 0.0035 | 0.0045 ± 0.013 | -0.0065 ± 0.016 | -0.0035 ± 0.0078 | -0.012 ± 0.0042 | -0.0005 ± 0.019 | 0.0065 ± 0.005 | -0.0085 ± 0.0064 | 0.0025 ± 0.0092 | -0.013 ± 0.0071 | 0.0095 ± 0.00071 | 0.0045 ± 0.0021 | 0.003 ± 0.0057 | -0.009 ± 0.0028 | 0.0095 ± 0.005
BE3C:CXCL11/I-TAC | -0.017 ± 0.0028 | -0.022 ± 0.0057 | 0.0005 ± 0.054 | -0.008 ± 0.033 | 0.0225 ± 0.037 | 0.011 ± 0.023 | 0.008 ± 0.0014 | 0.012 ± 0.02 | 0.011 ± 0.02 | -0.002 ± 0.0014 | -0.01 ± 0.0085 | -0.009 ± 0.0085 | -0.036 ± 0.021 | -0.0145 ± 0.0021 | -0.015 ± 0.0042 | -0.006 ± 0.013
LPS:CD106/VCAM-1 | -0.0045 ± 0.0078 | -0.0025 ± 0.011 | 0.0015 ± 0.036 | -0.024 ± 0.0071 | -0.032 ± 0.042 | -0.0215 ± 0.023 | -0.007 ± 0.0085 | -0.0105 ± 0.005 | -0.0145 ± 0.0092 | -0.033 ± 0.0014 | -0.0165 ± 0.013 | -0.006 ± 0.0028 | 0.0075 ± 0.033 | 0.011 ± 0.013 | -0.007 ± 0.0028 | -0.009 ± 0.021
BF4T:SRB | -0.0065 ± 0.005 | -0.0055 ± 0.0078 | -0.0075 ± 0.0035 | -0.006 ± 0.0057 | 0.002 ± 0.017 | -0.007 ± 0.0057 | -0.0035 ± 0.0021 | -0.003 ± 0.0028 | -0.0045 ± 0.0021 | -0.0025 ± 0.00071 | -0.018 ± 0.0085 | -0.018 ± 0.0071 | -0.016 ± 0.0014 | -0.0115 ± 0.00071 | -0.014 ± 0.0014 | 0.003 ± 0.018
4H:CCL26/Eotaxin-3 | 0.0545 ± 0.013 | 0.016 ± 0.04 | 0.0035 ± 0.0078 | 0 ± 0.041 | 0.014 ± 0.05 | -0.0115 ± 0.016 | 0.0075 ± 0.0064 | -0.024 ± 0.03 | 0.013 ± 0.0085 | 0.0345 ± 0.013 | -0.002 ± 0.0085 | -0.0035 ± 0.013 | -0.0155 ± 0.0064 | 0.0045 ± 0.022 | 0.017 ± 0.021 | 0.0085 ± 0.0092
BF4T:CD106/VCAM-1 | -0.0195 ± 0.042 | -0.0525 ± 0.028 | 0.003 ± 0.0028 | -0.003 ± 0.0057 | 0.0185 ± 0.043 | -0.035 ± 0.055 | -0.0205 ± 0.032 | -0.01 ± 0.017 | 0.0015 ± 0.016 | 0.0065 ± 0.018 | -0.0885 ± 0.049 | -0.103 ± 0.058 | -0.0625 ± 0.021 | -0.0385 ± 0.022 | -0.042 ± 0.0071 | 0.006 ± 0.071
4H:CD106/VCAM-1 | 0 ± 0.0057 | -0.002 ± 0.0057 | 0.01 ± 0.013 | -0.017 ± 0.0042 | -0.023 ± 0.017 | -0.0245 ± 0.0092 | 0.001 ± 0.034 | -0.0215 ± 0.021 | -0.012 ± 0.021 | 0.0035 ± 0.00071 | 0.005 ± 0.054 | 0.0095 ± 0.016 | -0.001 ± 0.016 | 0.01 ± 0.023 | -0.0125 ± 0.0078 | -0.001 ± 0.0042
BE3C:CD87/uPAR | 0.005 ± 0.031 | -0.0155 ± 0.012 | -0.016 ± 0.018 | -0.017 ± 0.028 | -0.0135 ± 0.022 | 0.0055 ± 0.021 | 0.0075 ± 0.0021 | -0.0045 ± 0.015 | 0.0045 ± 0.021 | -0.029 ± 0.025 | 0.0155 ± 0.035 | 0.0015 ± 0.0092 | 0.0325 ± 0.0021 | -0.0105 ± 0.005 | -0.0215 ± 0.012 | 0.008 ± 0.03
BF4T:MMP-9 | -0.0025 ± 0.011 | -0.0105 ± 0.00071 | 0.0055 ± 0.005 | -0.01 ± 0.0042 | 0.0065 ± 0.013 | -0.028 ± 0.059 | -0.028 ± 0.031 | -0.0155 ± 0.022 | -0.004 ± 0.071 | -0.0115 ± 0.033 | -0.073 ± 0.045 | -0.039 ± 0.0071 | -0.004 ± 0.0014 | -0.021 ± 0.0057 | -0.0135 ± 0.005 | 0.02 ± 0.017
SAg:PBMC Cytotoxicity | 0.0025 ± 0.005 | 0.023 ± 0.028 | 0.031 ± 0.021 | -0.006 | 0.0205 ± 0.023 | -0.0035 ± 0.029 | 0.002 ± 0.0042 | 0.013 ± 0.0028 | 0.017 ± 0.025 | 0.0425 ± 0.00071 | 0.007 ± 0.023 | 0.045 ± 0.0099 | 0.0765 ± 0.013 | 0.0115 ± 0.023 | 0.012 ± 0.0099 | 0.0115 ± 0.0078
LPS:CCL2/MCP-1 | 0.002 ± 0.0085 | -0.022 ± 0.0071 | 0.006 ± 0.0085 | -0.007 ± 0.0099 | 0.01 ± 0.013 | 0.0005 ± 0.022 | -0.001 ± 0.04 | -0.0085 ± 0.025 | 0.0065 ± 0.021 | 0.0145 ± 0.029 | -0.0165 ± 0.005 | -0.0055 ± 0.0021 | 0.0405 ± 0.025 | -0.02 ± 0.023 | -0.011 ± 0.021 | 0.0075 ± 0.036
BF4T:Keratin 8/18 | 0.0035 ± 0.0035 | 0.005 ± 0.0042 | 0.0005 ± 0.005 | -0.008 ± 0.014 | -0.0025 ± 0.042 | -0.025 ± 0.023 | -0.001 ± 0.014 | -0.0095 ± 0.018 | 0.023 ± 0.033 | -0.003 ± 0.033 | -0.007 ± 0.052 | 0.0065 ± 0.044 | 0.0005 ± 0.0035 | -0.0075 ± 0.022 | -0.008 ± 0.0014 | 0.0025 ± 0.019
SAg:CD40 | -0.003 ± 0.0085 | 0.0005 ± 0.0021 | -0.0095 ± 0.018 | -0.009 ± 0.0057 | -0.0015 ± 0.0078 | -0.0425 ± 0.088 | -0.0475 ± 0.022 | -0.063 ± 0.093 | 0.0085 ± 0.015 | -0.022 ± 0.0028 | -0.0265 ± 0.012 | -0.0275 ± 0.016 | -0.059 ± 0.02 | 0.015 ± 0.0028 | 0.01 ± 0.0057 | -0.008 ± 0.013
BF4T:IL-1alpha | -0.002 ± 0.0014 | -0.0125 ± 0.021 | -0.0025 ± 0.00071 | -0.009 ± 0.0099 | 0.021 ± 0.03 | -0.0225 ± 0.035 | -0.021 ± 0.024 | -0.0105 ± 0.018 | -0.0175 ± 0.0021 | 0.01 ± 0.025 | 0.0005 ± 0.00071 | -0.019 ± 0.0099 | 0.0055 ± 0.044 | -0.004 ± 0.0099 | 0.0085 ± 0.0035 | 0.006 ± 0.021
